Measurements taken from patent US8501946B2 (Glaxo Group Limited, priority 2009, dated 2013).

Target: T1, human recombinant P2X7 receptors (Homo sapiens, UniProt Q99572)
T1 construct: expressed in transfected cells
T1 sequence (Q99572 1-595): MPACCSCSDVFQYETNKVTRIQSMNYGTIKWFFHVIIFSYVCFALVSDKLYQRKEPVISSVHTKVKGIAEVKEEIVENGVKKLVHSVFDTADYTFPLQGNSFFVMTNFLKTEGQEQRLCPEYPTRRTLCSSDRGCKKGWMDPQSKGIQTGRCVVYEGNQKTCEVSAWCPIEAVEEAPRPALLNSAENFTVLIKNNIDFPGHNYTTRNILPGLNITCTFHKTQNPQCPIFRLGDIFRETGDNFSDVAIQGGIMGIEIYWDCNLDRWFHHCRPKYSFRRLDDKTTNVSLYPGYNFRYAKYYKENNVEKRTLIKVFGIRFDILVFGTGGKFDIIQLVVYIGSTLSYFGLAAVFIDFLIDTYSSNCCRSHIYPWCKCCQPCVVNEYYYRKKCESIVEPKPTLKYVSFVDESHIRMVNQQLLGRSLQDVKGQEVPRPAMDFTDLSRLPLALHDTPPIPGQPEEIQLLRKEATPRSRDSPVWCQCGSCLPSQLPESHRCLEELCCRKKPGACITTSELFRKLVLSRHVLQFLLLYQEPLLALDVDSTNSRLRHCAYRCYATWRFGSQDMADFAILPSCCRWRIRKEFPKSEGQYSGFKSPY
Assay: Ethidium Accumulation Assay 2 (HEK293 cells, ATP-induced ethidium uptake)
Type: cell-based
Conditions: HEK293 cells expressing human P2X7; sometimes mean of more than one measurement; read-out: Assay 2 (antagonist pIC50 for blocking ATP responses) (converted)
Experimental: Eithidium Accumulation Assay 2
Human Embryonic Kidney (HEK) 293 cells, stably expressing human recombinant P2X7 receptors, were grown in poly-D-lysine pretreated 96 well plates for 24 hours at 37° C.
The cells were washed with assay buffer (100 μL), before addition of 25 μL of assay buffer and then 25 ul of assay buffer containing the putative P2X7 receptor antagonist compound. The cells were then incubated at room temperature (19-21° C.) for 30 min before addition of ATP solution (50 μM). […] Antagonist pIC50 values for blocking ATP responses were determined using iterative curve fitting techniques.

Row | IC50 [nM] | Compound
1 | < 100 | O=C(c1ccc(Cl)c(F)c1Cl)N1CCn2c(nnc2-c2cncs2)C1 [Example 185, 7-[(2,4-Dichloro-3-fluorophenyl)carbonyl]-3-(1,3-thiazol-5-yl)-5,6,7,8-tetrahydro[1,2,4]triazolo[4,3-a]pyrazine]
2 | < 10 | Cc1c(C(=O)N2CCn3c(nnc3-c3cnccn3)C2)ccc(F)c1Cl [Example 146, 7-[(3-chloro-4-fluoro-2-methylphenyl)carbonyl]-3-(2-pyrazinyl)-5,6,7,8-tetrahydro[1,2,4]triazolo[4,3-a]pyrazine]
3 | < 10 | O=C(c1cccc(C(F)(F)F)c1Cl)N1CCn2c(nnc2-c2ncccc2O)C1 [Example 166, 2-(7-{[2-Chloro-3-(trifluoromethyl)phenyl]carbonyl}-5,6,7,8-tetrahydro[1,2,4]triazolo[4,3-a]pyrazin-3-yl)-3-pyridinol]
4 | < 100 | Cc1csc(-c2nnc3n2CCN(C(=O)c2ccc(Cl)c(F)c2Cl)C3)n1 [Example 191, 7-[(2,4-Dichloro-3-fluorophenyl)carbonyl]-3-(4-methyl-1,3-thiazol-2-yl)-5,6,7,8-tetrahydro[1,2,4]triazolo[4,3-a]pyrazine]
5 | < 100 | O=C(c1ccc(Cl)cc1Cl)N1CCn2c(nnc2-c2nccs2)C1 [Example 199, 7-[(2,4-Dichlorophenyl)carbonyl]-3-(1,3-thiazol-2-yl)-5,6,7,8-tetrahydro[1,2,4]triazolo[4,3-a]pyrazine]
6 | < 10 | O=C(c1ccc(F)c(Cl)c1Cl)N1CCn2c(nnc2-c2ncns2)C1 [Example 169, 7-[(2,3-dichloro-4-fluorophenyl)carbonyl]-3-(1,2,4-thiadiazol-5-yl)-5,6,7,8-tetrahydro[1,2,4]triazolo[4,3-a]pyrazine]
7 | < 100 | O=C(c1ccc(F)cc1Cl)N1CCn2c(nnc2-c2nccs2)C1 [Example 144, 7-[(2-chloro-4-fluorophenyl)carbonyl]-3-(1,3-thiazol-2-yl)-5,6,7,8-tetrahydro[1,2,4]triazolo[4,3-a]pyrazine]

The next lines start with the compound.

Row | Compound | IC50 [nM]
8 | Cc1c(Cl)cccc1C(=O)N1CCn2c(nnc2-c2nccs2)C1 [Example 200, 7-[(3-Chloro-2-methylphenyl)carbonyl]-3-(1,3-thiazol-2-yl)-5,6,7,8-tetrahydro[1,2,4]triazolo[4,3-a]pyrazine] | < 100
9 | O=C(c1ccc(Cl)cc1Cl)N1CCn2c(nnc2-c2ncns2)C1 [Example 205, 7-[(2,4-dichlorophenyl)carbonyl]-3-(1,2,4-thiadiazol-5-yl)-5,6,7,8-tetrahydro[1,2,4]triazolo[4,3-a]pyrazine] | < 100
10 | Cc1ccnc(-c2nnc3n2CCN(C(=O)c2ccc(Cl)c(F)c2Cl)C3)n1 [Example 177, 7-[(2,4-dichloro-3-fluorophenyl)carbonyl]-3-(4-methyl-2-pyrimidinyl)-5,6,7,8-tetrahydro[1,2,4]triazolo[4,3-a]pyrazine] | < 10
11 | N#Cc1c(Cl)cccc1C(=O)N1CCn2c(nnc2-c2ccccn2)C1 [Example 204, 2-Chloro-6-{[3-(2-pyridinyl)-5,6-dihydro[1,2,4]triazolo[4,3-a]pyrazin-7(8H)-yl]carbonyl}benzonitrile] | < 10

Target: T1, human recombinant P2X7 receptors
Assay: Ethidium Accumulation Assay 1 (HEK293 cells, ATP-induced ethidium uptake)
Type: cell-based
Conditions: HEK293 cells expressing human P2X7; 1 mM ATP; sometimes mean of more than one measurement; read-out: Assay 1 (antagonist pIC50 for blocking ATP responses) (converted)

Row | IC50 [nM] | Compound
12 | < 100 | Cc1ncccc1-c1nnc2n1CCN(C(=O)c1cccc(C(F)(F)F)c1Cl)C2 [Example 65, 7-{[2-chloro-3-(trifluoromethyl)phenyl]carbonyl}-3-(2-methyl-3-pyridinyl)-5,6,7,8-tetrahydro[1,2,4]triazolo [4,3-a]pyrazine]
13 | < 100 | O=C(c1ccccc1Cl)N1CCn2c(nnc2-c2cnccn2)C1 [Example 120, 7-[(2-chlorophenyl)carbonyl]-3-(2-pyrazinyl)-5,6,7,8-tetrahydro[1,2,4]triazolo[4,3-a]pyrazine]
14 | < 501 | Cc1ncccc1-c1nnc2n1CCN(C(=O)c1ccc(F)cc1Cl)C2 [Example 74, 7-[(2-chloro-4-fluorophenyl)carbonyl]-3-(2-methyl-3-pyridinyl)-5,6,7,8-tetrahydro[1,2,4]triazolo [4,3-a]pyrazine]
15 | < 501 | CC(C)(C)c1nnc2n1CCN(C(=O)c1cccc(C(F)(F)F)c1Cl)C2 [Example 25, 7-{[2-chloro-3-(trifluoromethyl)phenyl]carbonyl}-3-(1,1-dimethylethyl)-5,6,7,8-tetrahydro[1,2,4]triazolo [4,3-a]pyrazine]
16 | < 10 | O=C(c1ccc(Cl)cc1Cl)N1CCn2c(nnc2-c2cscn2)C1 [Example 97, 7-[(2,4-dichlorophenyl)carbonyl]-3-(1,3-thiazol-4-yl)-5,6,7,8-tetrahydro[1,2,4]triazolo [4,3-a]pyrazine]
17 | < 100 | Cn1nccc1-c1nnc2n1CCN(C(=O)c1cccc(Cl)c1Cl)C2 [Example 81, 7-[(2,3-dichlorophenyl)carbonyl]-3-(1-methyl-1H-pyrazol-5-yl)-5,6,7,8-tetrahydro[1,2,4]triazolo [4,3-]pyrazine]
18 | < 100 | O=C(c1cccc(C(F)(F)F)c1Cl)N1CCn2c(nnc2C2CCCC2)C1 [Example 139, 7-{[2-chloro-3-(trifluoromethyl)phenyl]carbonyl}-3-cyclopentyl-5,6,7,8-tetrahydro[1,2,4]triazolo[4,3-a]pyrazine]

The remaining lines, values behind:

Row | Compound | IC50 [nM]
19 | Cc1cc(-c2nnc3n2CCN(C(=O)c2cccc(C(F)(F)F)c2Cl)C3)no1 [Example 36, 7-{[2-chloro-3-(trifluoromethyl)phenyl]carbonyl}-3-(5-methyl-3-isoxazolyl)-5,6,7,8-tetrahydro[1,2,4]triazolo [4,3-a]pyrazine] | < 100
20 | O=C(c1ccc(F)cc1Cl)N1CCn2c(nnc2-c2cccnn2)C1 [Example 59, 7-[(2-chloro-4-fluorophenyl)carbonyl]-3-(3-pyridazinyl)-5,6,7,8-tetrahydro[1,2,]triazolo [4,3-a]pyrazine] | < 501
21 | Cc1cc(F)ccc1C(=O)N1CCn2c(nnc2-c2cnccn2)C1 [Example 107, 7-[(4-fluoro-2-methylphenyl)carbonyl]-3-(2-pyrazinyl)-5,6,7,8-tetrahydro[1,2,4]triazolo [4,3-a]pyrazine] | < 100
22 | O=C(c1ccc(Cl)cc1Cl)N1CCn2c(nnc2-c2ccccn2)C1 [Example 76, 7-[(2,4-dichlorophenyl)carbonyl]-3-(2-pyridinyl)-5,6,7,8-tetrahydro[1,2,4]triazolo [4,3-a]pyrazine] | < 10
23 | O=C(c1cccc(C(F)(F)F)c1Cl)N1CCn2c(nnc2C2CC2)C1 [Example 133, 7-{[2-chloro-3-(trifluoromethyl)phenyl]carbonyl}-3-cyclopropyl-5,6,7,8-tetrahydro[1,2,4]triazolo[4,3-a]pyrazine] | < 100
24 | O=C(c1ccc(F)cc1Cl)N1CCn2c(nnc2-c2cccc3cccnc23)C1 [Example 129, 8-{7-[(2-chloro-4-fluorophenyl)carbonyl]-5,6,7,8-tetrahydro[1,2,4]triazolo[4,3-a]pyrazin-3-yl}quinoline] | < 501
25 | O=C(c1cccc(C(F)(F)F)c1Cl)N1CCn2c(nnc2-c2ccco2)C1 [Example 77, 7-{[2-chloro-3-(trifluoromethyl)phenyl]carbonyl}-3-(2-furanyl)-5,6,7,8-tetrahydro[1,2,4]triazolo[4,3-a]pyrazine] | < 10
26 | Cn1cccc1-c1nnc2n1CCN(C(=O)c1cccc(C(F)(F)F)c1Cl)C2 [Example 29, 7-{[2-chloro-3-(trifluoromethyl)phenyl]carbonyl}-3-(1-methyl-1H-pyrrol-2-yl)-5,6,7,8-tetrahydro[1,2,4]triazolo [4,3-a]pyrazine] | < 10
